# How the values were obtained:
# Assay type in all cases: in vivo
# human A549 lung cancer = experiment: Nude mice tumor transplanted from human A549 lung cancer (Example 51); conditions: 40 mg/kg orally once a day for 24 days
# Procedure: Then the cultured A549 human lung cancer cells were implanted into the armpit of 50 mice. […] Each group had 8 mice. One group was treated with vehicle. One group was treated with Sutent, the positive control drug. […] Each group was dosed orally once a day for 24 days. Tumor volumes along with body weights were recorded twice per week. On the next day after 24 doses, the mice were killed, and tumors were weighed. The tumor growth inhibition of each group was calculated using the following formula: {[(the average tumor weight of control group)-(the average tumor weight of test group)]/(the average tumor weight of control group)}×100%.
# human HCT-8 colon cancer [1] = experiment: Nude mice tumor transplanted from human HCT-8 colon cancer (Example 52); conditions: 40 mg/kg orally once a day
# Procedure: Female nu/nu mice of 18∼20g were fed by normal diet for 3 days. Then the cultured HCT-8 human colon cancer cells were implanted into the armpit of 50 mice. […] Each group had 8 mice. One group was treated with vehicle. One group was treated with Sutent, the positive control drug. […] Each group was dosed orally once a day for 24 days. Tumor volumes along with body weights were recorded twice per week. On the next day after 20 doses, the mice were killed, and tumors were weighed. The tumor growth inhibition of each group was calculated using the following formula: {[([…])} × 100%. [formula] The experimental results are shown in Table 6 and Figure 2.
# [2] = tested on: SSMC7721 human liver cancer cells; experiment: Nude mice tumor transplanted from human SSMC7721 liver cancer (Example 53); conditions: 40 mg/kg orally once a day for 24 days
# Procedure: Female nu/nu mice of 18∼20g were fed by normal diet for 3 days. Then the cultured SSMC7721 human liver cancer cells were implanted into the armpit of 50 mice. […] One group was treated with vehicle. One group was treated with Sutent, the positive control drug. […] Each group was dosed orally once a day for 24 days. […] The tumor growth inhibition of each group was calculated using the following formula: {[([…])} × 100%. [formula] The experimental results are shown in Table 7 and Figure 3.
# human HCT-8 colon cancer [3] = experiment: Nude mice tumor transplanted from human HCT-8 colon cancer (Example 54); conditions: 40 mg/kg orally once a day for 20 days
# Procedure: (§1) Female nu/nu mice of 18∼20g were fed by normal diet for 3 days. Then the cultured HCT-8 human colon cancer cells were implanted into the armpit of 50 mice. […] Each group had 8 mice. One group was treated with vehicle. One group was treated with Sutent, the positive control drug. Two groups were treated with compound 33 at different concentrations. The other two groups were treated with compound 34 at different concentrations. Each group was dosed orally once a day for 20 days. […] The tumor growth inhibition of each group was calculated using the following formula: {[(the average tumor weight of control group)-(the average tumor weight of test group)]/(the average tumor weight of control group)} × 100%. [formula] The experimental results are shown in Table 8 and Figure 4.
# [4] = tested on: human SSMC7721 liver cancer; experiment: Nude mice tumor transplanted from human SSMC7721 liver cancer (Example 56); conditions: 40 mg/kg orally once a day for 30 days
# Procedure: as §1, with “cultured SSMC7721” for “cultured HCT-8”, “human liver” for “human colon”, “compound 37” for “compound 34”, “for 30” for “for 20”, “Table 10” for “Table 8”, “Figure 6. Table10” for “Figure 4.”
structure (smiles),measurement,setting,value
"CCN(CC)CCNC(=O)c1c(C)[nH]c(/C=C2\C(=O)Nc3ccc(F)cc32)c1C [Sutent, sunitinib, reference compound]",Tumor weight,human A549 lung cancer,2.06 ± 0.71 g
same,Body weight (g) end,human A549 lung cancer; end,24.4 ± 2.3 g
same,Body weight (g) start,human A549 lung cancer; start,20.3 ± 1.4 g
same,TGI (%),human A549 lung cancer; tumor growth inhibition,50.9%
same,Body weight (g) end,human HCT-8 colon cancer [1]; end,22.4 ± 1.1 g
same,Tumor weight,human HCT-8 colon cancer [1]; killed after 20 doses,0.23 ± 0.07 g
same,Body weight (g) start,human HCT-8 colon cancer [1]; start,21.5 ± 0.7 g
same,TGI (%),human HCT-8 colon cancer [1]; tumor growth inhibition,95.3%
same,Tumor weight,[2],1.00 ± 0.68 g
same,Body weight (g) end,[2]; end,24.8 ± 1.2 g
same,Body weight (g) start,[2]; start,21.0 ± 0.8 g
same,TGI (%),[2]; tumor growth inhibition,70.3%
same,Tumor weight,human HCT-8 colon cancer [3],0.44 ± 0.15 g
same,Body weight (g) end,human HCT-8 colon cancer [3]; end,22.1 ± 1.5 g
same,Body weight (g) start,human HCT-8 colon cancer [3]; start,20.6 ± 1.2 g
same,TGI (%),human HCT-8 colon cancer [3]; tumor growth inhibition,89.1%
same,Tumor weight,[4],0.88 ± 0.39 g
same,Body weight (g) end,[4]; end,24.0 ± 0.6 g
same,Body weight (g) start,[4]; start,21.2 ± 1.1 g
same,TGI (%),[4]; tumor growth inhibition,61.1%
